Laboratory results published in patent US20260008818A1, “CYCLIC PEPTIDE OR SALT THEREOF, AND USES THEREOF” (FUJIFILM Corporation, priority 2023, published 2026).
Bridge positions count the residues as written; N and C are the ends. Ends that are not written are not given here. COCH2 = acetyl group that carries the bridge

What follows are substances tested on Recombinant Human FGFR1 alpha (IIIc) Fc Chimera Protein (assay: Binding affinity of enzymatically synthesized cyclic peptide to FGFR by ELISA). Conditions: luminescence signal at reaction concentration 10 nmol/L, SEQ ID NO: 39 standardized to 1, enzyme synthesis product.
Procedure: The binding affinity of the cyclic peptide to FGFR was evaluated using an ELISA method.
The binding affinity of the enzymatically synthesized cyclic peptide to FGFR was measured by evaluating the amount of the cyclic peptide bound to FGFR by ELISA.
First, 5 ng of Recombinant Human FGFR1 alpha (IIIc) Fc Chimera Protein CF (R&D systems, 658-FR-050) was immobilized in each well of a 96-well plate, and blocked with Pierce Protein-Free (PBS) Blocking Buffer (Thermo, 37572), and a cyclic peptide diluted with Can Get Signal Immunoreaction Enhancer Solution I (TOYOBO, NKB-101) was then added and reacted at room temperature for 3 hours. After washing with 0.05% Tween 20-containing phosphate buffered saline (PBS), an anti-Myc antibody (Cell Signaling, 14038S) diluted with Can Get Signal Immunoreaction Enhancer Solution II (TOYOBO, NKB-101) was added and reacted at room temperature for 2 hours. After washing with 0.05% Tween 20-containing PBS, SuperSignal ELISA Femto Substrate (Thermo, 37075) was added, and the luminescence amount was measured. The dose-response relationship was calculated from using the difference between the luminescence amount in the well in which FGFR was immobilized and the luminescence amount in the well in which FGFR was not immobilized, and the concentration of the cyclic peptide at the time of reaction, and the binding affinity to FGFR was evaluated according to the following evaluation criteria. The evaluation result preferably satisfies the evaluation criteria A, B, or C.
In a case where a value of a luminescence signal emitted by the cyclic peptide set forth in SEQ ID NO: 39 at a reaction concentration of 10 nmol/L is standardized to 1, evaluation criteria of the luminescence signal value emitted by the cyclic peptide at a reaction concentration of 10 nmol/L is as follows. • A: 0.7 or more • B: 0.5 or more and less than 0.7 • C: 0.1 or more and less than 0.5 • D: less than 0.1.

| Substance | Evaluation result of binding affinity to FGFR |
| --- | --- |
| 34 (CRALLRGAPFHLAEC; disulfide 1-15) [compound 34] | D (less than 0.1) |
| 35 (CDRTLLYYRLSC; disulfide 1-12 (inferred)) [compound 35] | D (less than 0.1) |
| 36 (CRALLRGAPFHLAEK(COCH2); thioether 1-15; not fully specified; printed as (C)-RALLRGAPFHLAE-(K(acetyl))) [compound 36] | D (less than 0.1) |
| 37 (CDRTLLYYRLSK(COCH2); thioether 1-12; not fully specified; printed as (C)-DRTLLYYRLS-(K(acetyl))) [compound 37] | D (less than 0.1) |
| 38 (WCQLVWQGHKAPYLTLK(COCH2)L; thioether 2-17) [compound 38] | B (0.5 or more and less than 0.7) |
| 39 (HCSYERLQFHGHEAPFRVKV; also: cyclic peptide, ring not given here) [compound 39] | A (0.7 or more) |
| 40 (QCDVWYWLGHRVPFHPVK(COCH2)V; thioether 2-18 (inferred)) [compound 40] | B (0.5 or more and less than 0.7) |
| 41 (TCFVQLWFVDKPAPFLVK(COCH2)T; thioether 2-18 (inferred)) [compound 41] | B (0.5 or more and less than 0.7) |
| 42 (RCWDQLTFYGHQAPFYVK(COCH2)G; thioether 2-18 (inferred)) [compound 42] | A (0.7 or more) |
| 43 (SCWQQLVWFQFEAPFLVK(COCH2)V; thioether 2-18 (inferred)) [compound 43] | C (0.1 or more and less than 0.5) |
| 44 (FCPHIFLGHNAPFLVQK(COCH2)V; thioether 2-17 (inferred)) [compound 44] | A (0.7 or more) |
| 45 (YCFQKLEFFGHLAPFLFK(COCH2)S; thioether 2-18 (inferred)) [compound 45] | B (0.5 or more and less than 0.7) |
| 46 (ACWVQYLWHGHAAPFLIK(COCH2)S; thioether 2-18 (inferred)) [compound 46] | C (0.1 or more and less than 0.5) |
| 47 (SCWTQLQWQAHLAPFWTK(COCH2)V; thioether 2-18 (inferred)) [compound 47] | C (0.1 or more and less than 0.5) |
| 48 (HCKVQQLWLQGHYAPYWVK(COCH2)S; thioether 2-19 (inferred)) [compound 48] | C (0.1 or more and less than 0.5) |
| 49 (HCEWTQLIYYGFSAPYIVK(COCH2)R; thioether 2-19 (inferred)) [compound 49] | C (0.1 or more and less than 0.5) |

| Substance | Evaluation result of binding affinity to FGFR |
| --- | --- |
| 50 (WCRLKLLGHDAPFIK(COCH2)W; thioether 2-15 (inferred)) [compound 50] | B (0.5 or more and less than 0.7) |
| 51 (KCWQQLSFVGHIAPFVYK(COCH2)Y; thioether 2-18 (inferred)) [compound 51] | B (0.5 or more and less than 0.7) |
| 52 (SCYERVVLFGWQAPYWAK(COCH2)P; thioether 2-18 (inferred)) [compound 52] | B (0.5 or more and less than 0.7) |
| 53 (SCWYQPEWLGHHLPYLVK(COCH2)W; thioether 2-18 (inferred)) [compound 53] | C (0.1 or more and less than 0.5) |
| 54 (HCYERLQFHGHEAPFRVK(COCH2)V; thioether 2-18 (inferred)) [compound 54] | A (0.7 or more) |
| 55 (HCASYERLQFHGHEAPFRVK(COCH2)V; thioether 2-20 (inferred)) [compound 55] | C (0.1 or more and less than 0.5) |
| 56 (ACSYERLQFHGHEAPFRVK(COCH2)V; thioether 2-19 (inferred)) [compound 56] | A (0.7 or more) |
| 57 (HCAYERLQFHGHEAPFRVK(COCH2)V; thioether 2-19 (inferred)) [compound 57] | A (0.7 or more) |
| 58 (HCSYARLQFHGHEAPFRVK(COCH2)V; thioether 2-19 (inferred)) [compound 58] | B (0.5 or more and less than 0.7) |
| 59 (HCSYEALQFHGHEAPFRVK(COCH2)V; thioether 2-19 (inferred)) [compound 59] | C (0.1 or more and less than 0.5) |
| 60 (HCSYERLAFHGHEAPFRVK(COCH2)V; thioether 2-19 (inferred)) [compound 60] | B (0.5 or more and less than 0.7) |
| 61 (HCSYERLQFAGHEAPFRVK(COCH2)V; thioether 2-19 (inferred)) [compound 61] | A (0.7 or more) |
| 62 (HCSYERLQFHGHAAPFRVK(COCH2)V; thioether 2-19 (inferred)) [compound 62] | A (0.7 or more) |
| 63 (HCSYERLQFHGHEAAFRVK(COCH2)V; thioether 2-19 (inferred)) [compound 63] | C (0.1 or more and less than 0.5) |
| 64 (HCSYERLQFHGHEAPFAVK(COCH2)V; thioether 2-19 (inferred)) [compound 64] | B (0.5 or more and less than 0.7) |
| 65 (HCSYERLQFHGHEAPFRAK(COCH2)V; thioether 2-19 (inferred)) [compound 65] | A (0.7 or more) |

Second part, the substance after the results:

| Evaluation result of binding affinity to FGFR | Substance |
| --- | --- |
| A (0.7 or more) | 66 (HCSYERLQFHGHEAPFRVK(COCH2)A; thioether 2-19 (inferred)) [compound 66] |
| A (0.7 or more) | 67 (GCSYERLQFHGHEAPFRVK(COCH2)V; thioether 2-19 (inferred)) [compound 67] |
| A (0.7 or more) | 68 (PCSYERLQFHGHEAPFRVK(COCH2)V; thioether 2-19 (inferred)) [compound 68] |
| A (0.7 or more) | 69 (LCSYERLQFHGHEAPFRVK(COCH2)V; thioether 2-19 (inferred)) [compound 69] |
| A (0.7 or more) | 70 (ICSYERLQFHGHEAPFRVK(COCH2)V; thioether 2-19 (inferred)) [compound 70] |
| A (0.7 or more) | 71 (VCSYERLQFHGHEAPFRVK(COCH2)V; thioether 2-19 (inferred)) [compound 71] |
| A (0.7 or more) | 72 (FCSYERLQFHGHEAPFRVK(COCH2)V; thioether 2-19 (inferred)) [compound 72] |
| A (0.7 or more) | 73 (YCSYERLQFHGHEAPFRVK(COCH2)V; thioether 2-19 (inferred)) [compound 73] |
| A (0.7 or more) | 74 (WCSYERLQFHGHEAPFRVK(COCH2)V; thioether 2-19 (inferred)) [compound 74] |
| A (0.7 or more) | 75 (NCSYERLQFHGHEAPFRVK(COCH2)V; thioether 2-19 (inferred)) [compound 75] |
| A (0.7 or more) | 76 (QCSYERLQFHGHEAPFRVK(COCH2)V; thioether 2-19 (inferred)) [compound 76] |
| A (0.7 or more) | 77 (SCSYERLQFHGHEAPFRVK(COCH2)V; thioether 2-19 (inferred)) [compound 77] |
| A (0.7 or more) | 78 (TCSYERLQFHGHEAPFRVKV; not fully specified; Description of Artificial Sequence: Cyclic peptide) [compound 78] |
| A (0.7 or more) | 79 (DCSYERLQFHGHEAPFRVKV; not fully specified; Description of Artificial Sequence: Cyclic peptide) [compound 79] |
| A (0.7 or more) | 80 (ECSYERLQFHGHEAPFRVKV; not fully specified; Description of Artificial Sequence: Cyclic peptide) [compound 80] |
| A (0.7 or more) | 81 (RCSYERLQFHGHEAPFRVKV; not fully specified; Description of Artificial Sequence: Cyclic peptide) [compound 81] |
| A (0.7 or more) | 82 (HCGYERLQFHGHEAPFRVKV; not fully specified; Description of Artificial Sequence: Cyclic peptide) [compound 82] |
| A (0.7 or more) | 83 (HCPYERLQFHGHEAPFRVKV; not fully specified; Description of Artificial Sequence: Cyclic peptide) [compound 83] |
